Assay results: US20240350522A1, “HYGROMYCIN A FOR TREATMENT OF DISEASES AND INFECTIONS” (FLIGHTPATH BIOSCIENCES, INC., priority 2021, published 2024)
Values joined by “and” are separate entries in the source; they are usually repeats but may differ in a detail not shown here. Identical values can stand only once.

Legend:
Format in all cases: cell-based
[1] = test system: Treponema pallidum pallidum SS14 strain; test: Treated treponemes seeded onto no-antibiotic plate, 7 more days, T47 qPCR (treponemicidal activity)
[2] = test system: Treponema pallidum pallidum Chicago strain; test: as above
[3] = test system: Treponema pallidum pallidum Chicago strain; test: T. pallidum susceptibility assay, co-culture with Sf1Ep cells, tp0574 (T47) qPCR after 7 days; details: penicillin 60 ng/ml, 7 days
[4] = test system: Treponema pallidum pallidum SS14 strain; test: as above; details: penicillin 60 ng/ml, 7 days
[5] = pre-treated with penicillin 60 ng/ml, seeded on no antibiotic plate, average
[6] = pre-treated with penicillin 60 ng/ml, seeded on no antibiotic plate, replicate wells

## CC1(C)S[C@@H]2[C@H](NC(=O)Cc3ccccc3)C(=O)N2[C@H]1C(=O)O [Pen., penicillin G, reference compound]
[1]; SS14 strain, 60 ng/ml
  treponemicidal activity in words: treponemicidal
[1]; [5]
  Mean T47 copies/μL, Avg.: 18 copies/μL
[1]; [6]
  Mean T47 copies/μL, Expt. values: 21 copies/μL (2×) and 17 copies/μL and 24 copies/μL and 10 copies/μL and 13 copies/μL and 27 copies/μL and 15 copies/μL
[2]; Chicago strain, 60 ng/ml
  treponemicidal activity in words: treponemicidal
[2]; [5]
  Mean T47 copies/μL, Avg.: 26 copies/μL
[2]; [6]
  Mean T47 copies/μL, Expt. values: 12 copies/μL (2×) and 41 copies/μL and 74 copies/μL and 22 copies/μL (2×) and 15 copies/μL and 11 copies/μL
[3]; average of 8 replicates
  Mean T47 copies/μL, Avg.: 252 copies/μL
[3]; replicate wells
  Mean T47 copies/μL, experimental values: 294 copies/μL and 226 copies/μL and 304 copies/μL and 137 copies/μL and 328 copies/μL and 261 copies/μL and 222 copies/μL and 241 copies/μL
[4]; average of 8 replicates
  Mean T47 copies/μL, Average: 216 copies/μL
[4]; replicate wells
  Mean T47 copies/μL, experimental values: 189 copies/μL and 200 copies/μL and 166 copies/μL and 282 copies/μL and 184 copies/μL and 223 copies/μL and 214 copies/μL and 271 copies/μL
